Laboratory results as given in PubChem BioAssay AID2839 (Southern Research Specialized Biocontainment Screening …, 2010).
Calls of active or inactive are those of the source. The rule behind the calls is not given here.

Test system: Salmonella Typhi PhoP-promoter GFP reporter, low Mg2+, 4 h
Experiment: PhoP promoter GFP reporter reduction in Typhi – purified and synthesized compounds, set 2, PhoP regulon inhibitor project, dose response (AID 2839)
Details: not given

SMILES	IC50
CN1CCc2nc(SCC(=O)Nc3cccc(F)c3)c(C#N)c(-c3cccs3)c2C1	0.05 µM
O=C(Nc1ccc(Cl)cc1)N1CCCN(Cc2ccccc2F)C1	31.3 µM
O=C(Nc1ccc(Br)cc1)N1CCCN(Cc2ccccc2F)C1	61.6 µM
CCn1cc(C(=O)O)c(=O)c2cc(F)c(N3CCN(C(=S)Nc4ccc(Cl)cc4)CC3)cc21	60.8 µM
Cc1ccc(CN2CCCN(C(=O)Nc3ccc(Cl)cc3)C2)cc1	46.2 µM
C1=C(CCNc2ncnc3c2[nH]c2ccccc23)CCCC1	106 µM
CCn1cc(C(=O)O)c(=O)c2cc(F)c(N3CCN(C(=S)NC(=O)c4ccccc4F)CC3)cc21	95.9 µM
CCCCn1c(NS(=O)(=O)c2ccc(C)cc2)c(S(=O)(=O)c2ccccc2)c2nc3ccccc3nc21	< 0.15 µM
COc1ccccc1Nc1nc(NCc2ccco2)c2ccccc2n1	< 0.15 µM
O=C1C2=C(Nc3ccccc3SC2c2ccc(I)cc2)c2ccccc21 (stereo not drawn)	3.67 µM
COc1ccccc1NC(=O)N1CCCN(Cc2ccccc2F)C1	136 µM
CCCCCNC(=O)c1cn(CC)c2cc(N3CCN(C)CC3)c(F)cc2c1=O	< 0.15 µM
O=C(Nc1cccnc1)c1cc(Br)c(Br)s1	< 0.15 µM
CCCCn1c(NS(=O)(=O)c2ccccc2)c(S(=O)(=O)c2ccc(C)cc2)c2nc3ccccc3nc21	< 0.15 µM
O=c1c2ccccc2[nH]c2ccc(F)cc12	< 0.15 µM
CCOc1ccc(NC(=S)N2CCN(c3cc4c(cc3F)c(=O)c(C(=O)O)cn4CC)CC2)cc1	47.6 µM
O=C(Nc1nnc(-c2cccs2)o1)c1cccc(C(F)(F)F)c1	80.1 µM
CN(C)CCCN(C(=O)CCc1ccccc1)c1nc2ccc(Cl)cc2s1	< 0.15 µM
COc1ccc(NC(=O)c2cc(Br)c(Br)s2)cn1	< 0.15 µM

SMILES	IC50
O=S(=O)(Nc1c(S(=O)(=O)c2ccccc2)c2nc3ccccc3nc2n1C1CCCCC1)c1ccccc1	< 0.15 µM
CN1CCN(C2=Cc3cc(Cl)ccc3Sc3cc(F)ccc32)CC1	53.7 µM
COc1ccc(CNC(=S)Nc2ccncc2)cc1	48.1 µM
CCn1cc(C(=O)O)c(=O)c2cc(F)c(N3CCN(C(=S)NC(=O)c4ccccc4Cl)CC3)cc21	20.5 µM
S=C(NCc1ccc(Cl)cc1)Nc1ccncc1	15.9 µM
COc1cccc(C2Sc3ccccc3NC3=C2C(=O)c2ccccc23)c1 (stereo not drawn)	33.4 µM
O=C1C2=C(Nc3ccccc3SC2c2ccc(C(F)(F)F)cc2)c2ccccc21 (stereo not drawn)	< 2.35 µM
O=C(O)c1cn(-c2ccc(F)cc2)c2cc(Cl)c(F)cc2c1=O	< 0.15 µM
O=C1c2ccccc2C2=Nc3ccccc3SC(c3ccccc3F)C12 (stereo not drawn)	< 0.15 µM
N#C/C(=C\c1ccc[nH]1)C(=O)NC1CC1	60.4 µM
O=[N+]([O-])c1ccc(CNC2CCCc3ccccc32)cc1 (stereo not drawn)	16.6 µM
S=C(NCc1ccccc1Cl)Nc1ccncc1	131 µM
O=C1C2=C(Nc3ccccc3SC2c2ccsc2)c2ccccc21 (stereo not drawn)	34.5 µM
O=C(Nc1ccc(Cl)cc1)N1CCCN(Cc2ccc(F)cc2)C1	61.4 µM
O=C1C2=C(Nc3ccccc3SC2c2ccco2)c2ccccc21 (stereo not drawn)	16.8 µM
COc1c(N2CCN(C(=S)NCc3ccccc3)C(C)C2)c(F)cc2c(=O)c(C(=O)O)cn(C3CC3)c12 (stereo not drawn)	79.1 µM
O=C(Nc1ccccc1)N1CCCN(Cc2ccc(F)cc2)C1	72.2 µM
Cc1ccc(Nc2cc(C)c3c(O)cccc3n2)cc1C	9.67 µM
CCn1cc(C(=O)O)c(=O)c2cc(F)c(N3CCN(C(=S)Nc4ccccc4C(F)(F)F)CC3)cc21	24.1 µM

Test system: not listed separately
Experiment: as above
Details: Salmonella Typhi PhoP-promoter GFP reporter, low Mg2+, 4 h; at 150 µM (top of the series)

SMILES	inhibition
S=C(NCc1ccc(Cl)cc1)Nc1cccc(Cl)c1	29.4% (inactive)
S=C(NCc1ccc(Cl)cc1)Nc1ccc(Br)cc1	6.57% (inactive)
Fc1ccccc1NC(=S)NCc1ccc(Cl)cc1	-0.65% (inactive)
COc1cccc(NC(=S)NCc2ccc(Cl)cc2)c1	-3.63% (inactive)
COc1ccc(NC(=S)NCc2ccc(Cl)cc2)cc1	8.24% (inactive)
O=C(Nc1ccccc1)N1CCCN(Cc2ccccc2F)C1	28.7% (inactive)
CCn1cc(C(=O)O)c(=O)c2cc(F)c(N3CCN(C(=S)NCc4ccccc4)CC3)cc21	9.85% (inactive)
S=C(NCc1ccc(Cl)cc1)Nc1cccnc1	-36.6% (inactive)
O=C1C2=C(Nc3ccccc3SC2c2ccccc2C(F)(F)F)c2ccccc21 (stereo not drawn)	7.29% (inactive)
S=C(NCc1ccc(Cl)cc1)Nc1ccc(Cl)cc1	22.4% (inactive)
Cc1ccc(NC(=S)NCc2ccc(Cl)cc2)cc1	13.6% (inactive)
O=C(NCc1ccccc1)N1CCCN(Cc2ccccc2F)C1	6.93% (inactive)
CCn1cc(C(=O)O)c(=O)c2cc(F)c(N3CCN(C(=S)NC)CC3)cc21	4.25% (inactive)
O=C(Nc1ccccc1Cl)N1CCCN(Cc2ccccc2F)C1	16.8% (inactive)
Cc1cccc(NC(=S)NCc2ccc(Cl)cc2)c1	16.8% (inactive)
